Measurements reported in ChEMBL document CHEMBL1156040, “Identification and optimisation of novel and selective small molecular weight kinase inhibitors of mTOR” (Bioorg Med Chem Lett, 2009).

Key:
[1] = test system: MDR1 (human); test: Apparent permeability from apical to basolateral side in MDCK2 cells expressing human MDR1 at 10 uM; assay type: ADME, cell-based, Canis lupus familiaris, MDCK-II; conditions: dog, MDCK-MDR1
[2] = target: Phosphatidylinositol 4,5-bisphosphate 3-kinase catalytic subunit alpha isoform (Homo sapiens, UniProt P42336); test: Inhibition of PI3Kalpha kinase
Chain of Phosphatidylinositol 4,5-bisphosphate 3-kinase catalytic subunit alpha isoform (P42336 whole entry, canonical isoform): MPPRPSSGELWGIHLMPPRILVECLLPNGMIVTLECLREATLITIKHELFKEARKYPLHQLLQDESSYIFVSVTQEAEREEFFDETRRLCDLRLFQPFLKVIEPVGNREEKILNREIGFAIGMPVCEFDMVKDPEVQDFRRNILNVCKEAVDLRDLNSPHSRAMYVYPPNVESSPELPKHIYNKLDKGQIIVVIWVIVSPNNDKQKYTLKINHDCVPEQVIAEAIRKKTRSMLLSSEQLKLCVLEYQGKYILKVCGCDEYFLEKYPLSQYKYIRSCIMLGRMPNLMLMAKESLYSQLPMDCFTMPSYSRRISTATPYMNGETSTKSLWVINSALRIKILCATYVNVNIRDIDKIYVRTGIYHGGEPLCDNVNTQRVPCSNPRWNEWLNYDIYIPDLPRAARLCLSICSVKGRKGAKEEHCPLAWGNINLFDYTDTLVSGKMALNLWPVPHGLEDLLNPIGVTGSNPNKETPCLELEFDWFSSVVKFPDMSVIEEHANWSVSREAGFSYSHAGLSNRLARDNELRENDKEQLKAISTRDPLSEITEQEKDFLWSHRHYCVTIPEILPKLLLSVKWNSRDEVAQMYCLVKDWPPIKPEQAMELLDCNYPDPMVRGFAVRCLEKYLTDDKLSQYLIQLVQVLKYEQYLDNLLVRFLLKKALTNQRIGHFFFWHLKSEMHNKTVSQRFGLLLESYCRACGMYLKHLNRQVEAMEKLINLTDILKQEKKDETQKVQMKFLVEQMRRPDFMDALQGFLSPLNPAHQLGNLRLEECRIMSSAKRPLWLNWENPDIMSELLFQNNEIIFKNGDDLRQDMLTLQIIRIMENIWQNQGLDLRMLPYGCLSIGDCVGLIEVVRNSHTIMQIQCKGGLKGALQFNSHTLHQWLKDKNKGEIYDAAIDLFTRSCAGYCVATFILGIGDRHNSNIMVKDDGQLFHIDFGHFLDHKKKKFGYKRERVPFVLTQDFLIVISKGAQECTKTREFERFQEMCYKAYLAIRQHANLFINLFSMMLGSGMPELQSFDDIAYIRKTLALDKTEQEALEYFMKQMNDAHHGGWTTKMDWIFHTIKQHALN

[3] = target: Serine-protein kinase ATM (Homo sapiens, UniProt Q13315); test: Inhibition of ATM
Chain of Serine-protein kinase ATM (Q13315 whole entry): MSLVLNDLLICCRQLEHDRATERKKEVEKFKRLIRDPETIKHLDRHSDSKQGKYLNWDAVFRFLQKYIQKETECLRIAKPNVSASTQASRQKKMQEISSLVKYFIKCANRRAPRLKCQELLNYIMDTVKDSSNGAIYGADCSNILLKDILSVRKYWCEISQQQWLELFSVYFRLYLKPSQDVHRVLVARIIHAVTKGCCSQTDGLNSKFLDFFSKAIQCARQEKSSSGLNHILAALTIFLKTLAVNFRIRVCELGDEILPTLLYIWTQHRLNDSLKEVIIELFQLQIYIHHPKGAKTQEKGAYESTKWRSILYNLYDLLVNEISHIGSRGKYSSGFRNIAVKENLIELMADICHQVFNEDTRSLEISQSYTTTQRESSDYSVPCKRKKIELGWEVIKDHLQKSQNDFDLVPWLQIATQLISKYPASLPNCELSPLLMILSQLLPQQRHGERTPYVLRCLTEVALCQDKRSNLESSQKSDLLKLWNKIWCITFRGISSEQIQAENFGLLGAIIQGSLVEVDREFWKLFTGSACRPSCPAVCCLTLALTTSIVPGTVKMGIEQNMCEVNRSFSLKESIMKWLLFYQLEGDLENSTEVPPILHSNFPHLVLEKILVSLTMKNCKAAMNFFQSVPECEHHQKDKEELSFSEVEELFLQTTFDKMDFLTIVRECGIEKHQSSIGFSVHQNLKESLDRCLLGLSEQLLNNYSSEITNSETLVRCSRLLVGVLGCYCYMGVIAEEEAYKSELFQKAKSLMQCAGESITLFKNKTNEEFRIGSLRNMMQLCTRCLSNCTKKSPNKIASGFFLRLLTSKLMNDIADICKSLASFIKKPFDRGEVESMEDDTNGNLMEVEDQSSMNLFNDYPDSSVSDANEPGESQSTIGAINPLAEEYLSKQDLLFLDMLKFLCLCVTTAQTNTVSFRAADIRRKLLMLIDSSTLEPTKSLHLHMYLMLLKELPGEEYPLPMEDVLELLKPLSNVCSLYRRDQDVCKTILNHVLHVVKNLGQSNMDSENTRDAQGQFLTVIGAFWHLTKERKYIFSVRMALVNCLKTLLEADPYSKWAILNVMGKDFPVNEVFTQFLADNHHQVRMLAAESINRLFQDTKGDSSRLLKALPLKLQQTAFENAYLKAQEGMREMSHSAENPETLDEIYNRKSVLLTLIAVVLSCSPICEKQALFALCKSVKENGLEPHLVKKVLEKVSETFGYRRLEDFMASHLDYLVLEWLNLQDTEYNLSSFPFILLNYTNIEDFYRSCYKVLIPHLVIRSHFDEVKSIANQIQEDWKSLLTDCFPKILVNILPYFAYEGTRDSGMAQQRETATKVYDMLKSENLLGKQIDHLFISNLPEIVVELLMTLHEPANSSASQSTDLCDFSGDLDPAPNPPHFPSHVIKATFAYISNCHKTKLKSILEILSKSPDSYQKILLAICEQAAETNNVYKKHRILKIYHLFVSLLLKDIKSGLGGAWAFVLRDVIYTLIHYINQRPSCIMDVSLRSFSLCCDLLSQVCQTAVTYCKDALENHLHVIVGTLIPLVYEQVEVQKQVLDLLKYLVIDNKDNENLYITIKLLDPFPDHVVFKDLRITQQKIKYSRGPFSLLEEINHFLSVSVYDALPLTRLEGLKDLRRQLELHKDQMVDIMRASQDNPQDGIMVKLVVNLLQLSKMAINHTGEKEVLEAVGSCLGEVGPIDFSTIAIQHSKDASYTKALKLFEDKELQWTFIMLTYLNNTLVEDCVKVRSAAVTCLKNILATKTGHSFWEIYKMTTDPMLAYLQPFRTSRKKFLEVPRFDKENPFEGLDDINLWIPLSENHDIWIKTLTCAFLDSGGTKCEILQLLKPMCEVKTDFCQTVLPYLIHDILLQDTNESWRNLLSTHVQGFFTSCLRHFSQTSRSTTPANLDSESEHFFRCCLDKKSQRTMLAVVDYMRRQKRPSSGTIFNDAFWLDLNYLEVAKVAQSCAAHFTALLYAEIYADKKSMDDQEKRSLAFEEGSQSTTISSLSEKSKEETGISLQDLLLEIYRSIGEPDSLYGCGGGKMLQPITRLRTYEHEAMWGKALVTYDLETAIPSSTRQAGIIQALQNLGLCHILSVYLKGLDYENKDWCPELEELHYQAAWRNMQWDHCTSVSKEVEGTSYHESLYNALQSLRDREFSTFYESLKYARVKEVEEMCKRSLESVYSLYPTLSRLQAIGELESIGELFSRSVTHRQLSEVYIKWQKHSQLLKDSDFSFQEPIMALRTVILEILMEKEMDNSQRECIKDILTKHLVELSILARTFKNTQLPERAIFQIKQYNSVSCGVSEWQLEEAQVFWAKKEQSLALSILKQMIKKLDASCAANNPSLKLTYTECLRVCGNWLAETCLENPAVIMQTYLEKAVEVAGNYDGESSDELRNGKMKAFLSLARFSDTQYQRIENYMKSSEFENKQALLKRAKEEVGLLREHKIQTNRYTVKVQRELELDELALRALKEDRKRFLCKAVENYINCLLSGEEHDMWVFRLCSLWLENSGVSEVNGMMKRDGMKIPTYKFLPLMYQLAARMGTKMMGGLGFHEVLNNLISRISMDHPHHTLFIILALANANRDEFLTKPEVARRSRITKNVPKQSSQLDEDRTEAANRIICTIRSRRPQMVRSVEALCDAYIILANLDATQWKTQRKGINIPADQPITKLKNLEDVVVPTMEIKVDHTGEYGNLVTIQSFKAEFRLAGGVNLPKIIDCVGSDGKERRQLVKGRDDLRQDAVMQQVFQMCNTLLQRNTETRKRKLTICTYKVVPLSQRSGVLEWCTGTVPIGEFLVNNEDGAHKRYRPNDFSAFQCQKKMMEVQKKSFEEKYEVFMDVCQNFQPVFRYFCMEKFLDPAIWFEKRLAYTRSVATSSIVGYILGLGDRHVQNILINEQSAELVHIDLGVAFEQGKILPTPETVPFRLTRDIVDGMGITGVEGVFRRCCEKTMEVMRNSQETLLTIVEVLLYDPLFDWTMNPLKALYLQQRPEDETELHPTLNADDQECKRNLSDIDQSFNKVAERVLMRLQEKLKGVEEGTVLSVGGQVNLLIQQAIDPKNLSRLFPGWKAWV

[4] = target: T1, Serine/threonine-protein kinase mTOR (Homo sapiens, UniProt P42345); test: Inhibition of mTOR kinase in human HeLa cells by ELISA; assay type: cell-based
[5] = Growth inhibition of human U87MG cells; assay type: functional, U-87MG ATCC; conditions: U-87 MG
[6] = target: T1, Serine/threonine-protein kinase mTOR; test: Inhibition of mTOR kinase in human HeLa cells at 10 uM by ELISA; assay type: cell-based; parameters: scale not given: the % may be the effect or the level left

| Compound | IC50 [2] [µM] | IC50 [4] [µM] | GI50 [5] [µM] | further results |
| --- | --- | --- | --- | --- |
| Oc1cccc(-c2ccc(-c3cc(N4CCOCC4)nc(N4CCOCC4)n3)o2)c1 |  |  |  | Papp A→B at 10 µM [1]: 2.2 ×10⁻⁶ cm/s |
| COc1cc(/C=N/Nc2nc(N3CCOCC3)nc(N3CCOCC3)n2)cc(OC)c1O | > 10 | 0.27 |  | IC50 [3]: > 10 µM |
| COc1cc(-c2cn(-c3nc(N4CCOCC4)nc(N4CCOCC4)n3)cn2)cc(OC)c1O | > 10 |  | 24 |  |
| c1cc2cc(-c3ccc(-c4cc(N5CCOCC5)nc(N5CCOCC5)n4)o3)ccc2[nH]1 |  | > 10 |  |  |
| COc1cc(-c2ccc(-c3ccnc(N4CCOCC4)n3)s2)cc(OC)c1O |  |  |  | Activity [6]: < 50% |
| COc1cc(-c2cnn(-c3ccnc(N4CCOCC4)n3)c2)cc(OC)c1O |  |  |  | Activity [6]: < 50% |
| OCc1cccc(-c2ccc(-c3cc(N4CCOCC4)nc(N4CCOCC4)n3)o2)c1 |  |  |  | Papp A→B at 10 µM [1]: 33 ×10⁻⁶ cm/s |

Second part, led by results:

| IC50 [2] [µM] | IC50 [4] [µM] | Compound | GI50 [5] [µM] | further results |
| --- | --- | --- | --- | --- |
| > 10 | 0.18 | COc1cc(-c2csc(-c3ccnc(N4CCOCC4)n3)n2)cc(OC)c1O | 21 |  |
| > 10 | 0.023 | COc1cc(-c2ccc(-c3cc(N4CCOCC4)nc(N4CCOCC4)n3)o2)cc(OC)c1O | 16 |  |
| > 10 | 0.052 | COc1cc(-c2ccc(-c3ccnc(N4CCOCC4)n3)o2)cc(OC)c1O | 3.7 |  |
